Reference: patent publication US20220091133A1, “METHODS AND ASSAYS FOR IMMUNE PHENOTYPING” (Washington University, priority 2020, published 2022)
“And” between values parts separate entries of the source, which are not always exact repeats. Equal entries are not always repeated. Starred links: 1 amine or outer side, 2 acyl side, 3 side chain; linkers in the order of their positions; H or OH if unused. Positions of bridges follow the written chain, without caps; N, C: chain ends. Non-standard residues stand in square brackets, D forms with d. Residues, ends and D or L forms follow the SMILES beside them. *: point of attachment. hTyr(3S-OH,4S-OH,3'-OSO3H) = N[C@H](C(=O)O)[C@H](O)[C@@H](O)c1ccc(O)c(OS(=O)(=O)O)c1; Orn(4R-OH,5R-OH) = O=C([C@H](C[C@@H](O)[C@@H](O)N[*:3])N[*:1])[*:2]; Pro(3S-OH,4S-Me) = C[C@H]1CN[C@H](C(=O)O)[C@H]1O; X1 = CCCCCOc1ccc(-c2cc(-c3ccc(C(=O)*)cc3)no2)cc1; Gln(3R-OH) = NC(=O)C[C@@H](O)[C@H](N)C(=O)O; Hyp = O=C(O)[C@@H]1C[C@@H](O)CN1

Columns and labels:
[1] = test system: Trichosporon asahii and Saksenaea species; experiment: Tissue, wound, blood and bone cultures of the fungal wound sepsis patient; type: in vivo, human; details: posaconazole, amphotericin B and micafungin together, before IL-7
Excerpt: They were aggressively treated with daily or alternating-day operative debridement, broad-spectrum parenteral and topical antibacterial and antifungal therapy. Antimicrobial therapy included ceftazidime, metronidazole, trimethoprim-sulfamethoxazole, micafungin, amphotericin B, and posaconazole (FIG. 29), as well as VERAFLO vac instillation of antimicrobials into the wound bed. The patient's polymicrobial soft tissue infection continued to advance and was accompanied by multisystem organ failure and shock. Over a 4-week period, they required debridement of >3000 cm^2 of skin, subcutaneous tissue, and muscle involving the entire perineum, bilateral thighs, buttocks, and circumferential abdominal wall (FIG. 28B).
Tissue histology also became negative for fungus at approximately the same time as tissue cultures (FIG. 28E).

Saksenaea isolate = experiment: CLSI broth dilution antifungal susceptibility testing; details: Saksenaea isolate from patient wound, CLSI broth dilution reference method
[2] = test system: peripheral blood mononuclear cells (T cell IFN-γ production); type: cell-based, human
mucormycosis = details: nivolumab (anti-PD-1) and IFN-γ together, Belgian bomb blast victim, reference 5; cited from earlier work

Compound | wound cultures for Trichosporon asahii and Saksenaea species despite triple antifungal therapy [1] | Drug sensitivities (Saksenaea isolate) [µg/mL] | further results
C[C@@H]1[C@H](O)[C@@H](C)/C=C/C=C/C=C/C=C/C=C/C=C/C=C/[C@H](O[C@@H]2O[C@H](C)[C@@H](O)[C@H](N)[C@@H]2O)C[C@@H]2O[C@](O)(C[C@@H](O)C[C@@H](O)[C@H](O)CC[C@@H](O)C[C@@H](O)CC(=O)O[C@H]1C)C[C@H](O)[C@H]2C(=O)O [amphotericin B] | persistently positive | < 0.03 | 
C[C@@H]1C[C@H]2[C@@H]3CCC4=CC(=O)C=C[C@]4(C)[C@@]3(F)[C@@H](O)C[C@]2(C)[C@@]1(O)C(=O)COP(=O)(O)O [dexamethasone, dexamethasone phosphate] |  |  | decrease in IFN-γ production (ELISpot total well intensity) [2]: 61% and 58%; reduction in the number of IFN-γ secreting cells [2]: 30% and 49%
C[C@@H](c1nc(-c2ccc(C#N)cc2)cs1)[C@](O)(Cn1cncn1)c1cc(F)ccc1F [isavuconazole] |  | 1 | 
CCCCCOc1ccc(-c2cc(-c3ccc(C(=O)N[C@H]4C[C@@H](O)[C@@H](O)NC(=O)[C@@H]5[C@@H](O)[C@@H](C)CN5C(=O)[C@H]([C@H](O)CC(N)=O)NC(=O)[C@H]([C@H](O)[C@@H](O)c5ccc(O)c(OS(=O)(=O)O)c5)NC(=O)[C@@H]5C[C@@H](O)CN5C(=O)[C@H]([C@@H](C)O)NC4=O)cc3)no2)cc1 [micafungin] (X1-[Orn(4R-OH,5R-OH)]T[Hyp][hTyr(3S-OH,4S-OH,3'-OSO3H)][Gln(3R-OH)][Pro(3S-OH,4S-Me)]; lactam 1-C) | persistently positive |  | 
CC[C@@H]([C@H](C)O)n1ncn(-c2ccc(N3CCN(c4ccc(OC[C@@H]5CO[C@@](Cn6cncn6)(c6ccc(F)cc6F)C5)cc4)CC3)cc2)c1=O [posaconazole] | persistently positive | 0.25 | 
IFN-γ: interferon-γ given as immune-adjuvant therapy |  |  | outcome of immune-adjuvant therapy in refractory mucormycosis (mucormycosis): rapid clinical improvement, enhanced immune phenotypic markers, and fungal elimination
nivolumab [reference compound] |  |  | outcome of immune-adjuvant therapy in refractory mucormycosis (mucormycosis): rapid clinical improvement, enhanced immune phenotypic markers, and fungal elimination
